Legend:
JAK1 = JAK1 (Homo sapiens, UniProt P23458); assay: Cell-free tyrosine kinase inhibition assay JAK1; assay type: biochemical
NALM-6-UM1 cells = assay: Fas-mediated apoptosis, DNA fragmentation; assay type: cell-based, human
Description: FIGS. 6A-6D: Apoptotic Responses of Human B-lineage Leukemia Cells to Fas Ligation in Relationship to BTK Expression and Function. Anti-BTK and anti-Actin dual-antibody Western blot analysis of whole cell lysates from BTK-positive NALM-6-UM1 (N6-U1) and BTK-deficient RAMOS-1 cells (FIG. 5A). Anti-Fas Western blot analysis of the same cell lysates. [B] Cells were harvested 24 hours after exposure to anti-Fas antibody at 0.1 μg/ml or 1.0 μg/ml concentrations and DNA from Triton-X-100 lysates was analyzed for fragmentation, as described by Uckun, F. M., et al. (1996) Science 273, 1096-1100; and Uckun, F. M., et al. (1995) Science 267, 886-91. […] [C.1] and [C.2] […] N6-U1 cells were harvested 24 hours after exposure to anti-Fas antibody at 0.1 μg/ml or 1.0 μg/ml concentrations and DNA from Triton-X-100 lysates was analyzed for fragmentation, as described by Uckun, F. M., et al. (1996) Science 273, 1096-1100; and Uckun, F. M., et al. (1995) Science 267, 886-91. […]
Apoptosis Assays. […] MC540 binding (as an early marker of apoptosis) and PI permeability (as a marker of advanced stage apoptosis) were simultaneously measured in DT-40 cells 24 hours after exposure to anti-Fas antibody as previously described (Uckun, F. M., et al. (1996) Science 273, 1096-1100). Whole cells were analyzed with a FACStar Plus flow cytometer (Becton Dickinson, San Jose, Calif.). […]

JAK1, sequence (P23458 whole entry, species assumed, the tested form may be a part): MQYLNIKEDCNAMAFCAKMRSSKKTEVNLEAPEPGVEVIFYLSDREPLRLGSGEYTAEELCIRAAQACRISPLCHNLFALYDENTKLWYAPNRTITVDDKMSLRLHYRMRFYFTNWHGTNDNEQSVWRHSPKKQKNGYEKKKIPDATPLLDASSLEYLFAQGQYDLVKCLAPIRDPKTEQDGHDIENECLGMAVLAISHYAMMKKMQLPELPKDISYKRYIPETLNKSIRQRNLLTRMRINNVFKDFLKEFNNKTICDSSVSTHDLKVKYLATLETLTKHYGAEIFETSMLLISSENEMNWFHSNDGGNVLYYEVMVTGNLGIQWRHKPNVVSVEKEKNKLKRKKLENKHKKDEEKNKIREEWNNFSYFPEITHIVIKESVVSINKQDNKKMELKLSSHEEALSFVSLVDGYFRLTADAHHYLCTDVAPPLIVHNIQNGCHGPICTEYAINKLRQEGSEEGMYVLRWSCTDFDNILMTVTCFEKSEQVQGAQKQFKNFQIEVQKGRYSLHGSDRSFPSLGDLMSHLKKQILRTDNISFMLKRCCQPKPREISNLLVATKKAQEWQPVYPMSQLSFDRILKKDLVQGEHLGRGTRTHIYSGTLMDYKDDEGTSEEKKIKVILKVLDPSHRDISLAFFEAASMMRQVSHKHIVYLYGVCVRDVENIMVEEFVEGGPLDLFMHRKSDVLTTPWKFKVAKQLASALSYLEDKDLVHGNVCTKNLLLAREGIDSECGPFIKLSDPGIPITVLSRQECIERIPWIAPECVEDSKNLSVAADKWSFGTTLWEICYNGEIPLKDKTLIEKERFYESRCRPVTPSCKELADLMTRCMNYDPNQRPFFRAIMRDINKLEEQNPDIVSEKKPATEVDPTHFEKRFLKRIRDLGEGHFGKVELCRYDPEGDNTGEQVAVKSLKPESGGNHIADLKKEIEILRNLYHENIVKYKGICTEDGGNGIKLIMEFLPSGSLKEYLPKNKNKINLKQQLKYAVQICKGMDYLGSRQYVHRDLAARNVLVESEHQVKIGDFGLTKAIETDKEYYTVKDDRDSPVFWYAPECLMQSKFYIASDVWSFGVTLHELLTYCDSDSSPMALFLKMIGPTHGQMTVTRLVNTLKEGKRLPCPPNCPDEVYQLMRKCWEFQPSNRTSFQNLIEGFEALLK

C/C(O)=C(\C#N)C(=O)Nc1cc(Br)ccc1Br [LFM-A13, α-Cyano-β-hydroxy-β-methyl-N-(2,5-dibromophenyl)-propenamide]
IC50 (JAK1): > 278 µM | effect on enzymatic activity of JAK1 (JAK1; concentrations as high as 100 μg/ml (~278 μM)): did not affect the enzymatic activity | sensitivity to Fas-mediated apoptosis after pretreatment (NALM-6-UM1 cells; 10 μM x 4 hours, then anti-Fas 0.1 or 1.0 μg/ml, 24 hours): sensitive to Fas-mediated apoptosis | apoptosis by compound alone (NALM-6-UM1 cells; 10 μM, 4 hour treatment): did not induce apoptosis
